In PubChem BioAssay AID248 (DTP/NCI, 2004) one finds T/C data, which are given here for twelve compounds.

This assay has as its system L1210 leukemia ip in BDF1 mice, survival T/C. Briefly: NCI In Vivo Anticancer Drug Screen. Data for tumor model L1210 Leukemia (intraperitoneal) in B6D2F1 (BDF1) mice. Conditions: endpoint: mean survival time, higher = longer survival. Put shortly:
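In this screen, tumor-bearing mice given compound are compared to those given vehicle, and their survival values are reported as a treated-to-control quotient.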

Where [1] appears, read: dose: 200.0 mg/kg/injection, schedule: Q04DX003 (ip), vehicle: Klucel (hydroxypropylcellulose) (HPC).
Setting [2] is: dose: 400.0 mg/kg/injection, schedule: Q04DX003 (ip), vehicle: Klucel (hydroxypropylcellulose) (HPC).
Where [3] appears, read: dose: 100.0 mg/kg/injection, schedule: Q04DX002 (ip), vehicle: Klucel (hydroxypropylcellulose) (HPC).
Where [4] appears, read: dose: 200.0 mg/kg/injection, schedule: Q04DX002 (ip), vehicle: Klucel (hydroxypropylcellulose) (HPC).
The mark [5] stands for this setting: dose: 400.0 mg/kg/injection, schedule: Q04DX002 (ip), vehicle: Klucel (hydroxypropylcellulose) (HPC).
[6] abbreviates: dose: 100.0 mg/kg/injection, schedule: Q01DX009 (ip), vehicle: Klucel (hydroxypropylcellulose) (HPC).
Setting [7] is: dose: 200.0 mg/kg/injection, schedule: Q01DX009 (ip), vehicle: Klucel (hydroxypropylcellulose) (HPC).
[8] abbreviates: dose: 200.0 mg/kg/injection, schedule: Q01DX001 (ip), vehicle: saline.
The mark [9] stands for this setting: dose: 400.0 mg/kg/injection, schedule: Q01DX001 (ip), vehicle: saline.
Where [10] appears, read: dose: 100.0 mg/kg/injection, schedule: Q04DX003 (ip), vehicle: Klucel (hydroxypropylcellulose) (HPC).
The mark [11] stands for this setting: dose: 100.0 mg/kg/injection, schedule: Q01DX001 (ip), vehicle: saline.

Toxic doses and inconclusive results are not listed.

In the case of `COc1cc2c(c(OC)c1OC)-c1cc(I)c(O)cc1[C@@H](NC(C)=O)CC2`, the T/C is, setting by setting: (dose: 8.0 mg/kg/injection, schedule: Q01DX Z (ip), vehicle: carboxymethylcellulose (CMC)) 104 % of control; (dose: 11.0 mg/kg/injection, schedule: Q01DX009 (ip), vehicle: saline with Tween-80) 114 % of control; (dose: 12.0 mg/kg/injection, schedule: Q01DX Z (ip), vehicle: carboxymethylcellulose (CMC)) 109 % of control; (dose: 16.5 mg/kg/injection, schedule: Q01DX009 (ip), vehicle: saline with Tween-80) 115 % of control; (dose: 18.0 mg/kg/injection, schedule: Q01DX Z (ip), vehicle: carboxymethylcellulose (CMC)) 119 % of control; (dose: 25.0 mg/kg/injection, schedule: Q01DX009 (ip), vehicle: saline with Tween-80) 110 % of control. Moreover, the T/C runs as follows: (dose: 28.0 mg/kg/injection, schedule: Q01DX Z (ip), vehicle: carboxymethylcellulose (CMC)) 118 % of control; (dose: 28.0 mg/kg/injection, schedule: Q01DX Z (ip), vehicle: saline) 123 % of control; (dose: 40.0 mg/kg/injection, schedule: Q01DX015 (ip), vehicle: carboxymethylcellulose (CMC)) 104 % of control; (dose: 44.0 mg/kg/injection, schedule: Q04DX003 (ip), vehicle: saline sonified) 100 % of control; (dose: 45.0 mg/kg/injection, schedule: Q01DX Z (ip), vehicle: saline) 122 % of control; (dose: 50.0 mg/kg/injection, schedule: Q01DX001 (ip), vehicle: carboxymethylcellulose (CMC)) 124 % of control. In addition, the T/C reads like this: (dose: 65.0 mg/kg/injection, schedule: Q01DX Z (ip), vehicle: saline) 105 % of control; (dose: 66.0 mg/kg/injection, schedule: Q04DX003 (ip), vehicle: saline sonified) 107 % of control; (dose: 100.0 mg/kg/injection, schedule: Q01DX001 (ip), vehicle: carboxymethylcellulose (CMC)) 120 % of control; (dose: 100.0 mg/kg/injection, schedule: Q01DX009 (ip), vehicle: saline sonified) 124 % of control; (dose: 100.0 mg/kg/injection, schedule: Q01DX Z (ip), vehicle: carboxymethylcellulose (CMC)) 122 % of control; (dose: 100.0 mg/kg/injection, schedule: Q04DX003 (ip), vehicle: saline sonified) 108 % of control. Also, the T/C is 124 % of control (dose: 150.0 mg/kg/injection, schedule: Q04DX003 (ip), vehicle: saline sonified); 111 % of control under setting [1]; 165 % of control (dose: 400.0 mg/kg/injection, schedule: Q01DX009 (ip), vehicle: saline sonified); 96 % of control under setting [2].
Regarding `CC1CCCC(C)[N+]1=C(Nc1cccc(Cl)c1)c1ccccc1` (stereo not given), the T/C is 97 % of control under setting [3], 106 % of control under setting [4] and 101 % of control under setting [5].
On to `Cc1noc(C)c1CC1(c2ccccc2)CCCCC1=O` (stereo not given), for which the T/C runs as follows: under setting [6], 93 % of control; under setting [7], 95 % of control; (dose: 400.0 mg/kg/injection, schedule: Q01DX009 (ip), vehicle: Klucel (hydroxypropylcellulose) (HPC)) 93 % of control.
As for `OC(CBr)c1ccc(Cl)cc1` (stereo not given), the T/C is 96 % of control (dose: 100.0 mg/kg/injection, schedule: Q01DX009 (ip), vehicle: saline with Tween-80); 98 % of control (dose: 100.0 mg/kg/injection, schedule: Q04DX003 (ip), vehicle: saline with Tween-80); 96 % of control (dose: 200.0 mg/kg/injection, schedule: Q01DX009 (ip), vehicle: saline with Tween-80); 104 % of control (dose: 200.0 mg/kg/injection, schedule: Q04DX003 (ip), vehicle: saline with Tween-80); 89 % of control (dose: 400.0 mg/kg/injection, schedule: Q04DX003 (ip), vehicle: saline with Tween-80).
For `CCCCCCCCCCCCCCC(CCCCCCCCCCCCCC)C1CCCCC1`, the T/C is 92 % of control (dose: 100.0 mg/kg/injection, schedule: Q01DX001 (ip), vehicle: saline with Tween-80); 95 % of control (dose: 200.0 mg/kg/injection, schedule: Q01DX001 (ip), vehicle: saline with Tween-80); 94 % of control (dose: 400.0 mg/kg/injection, schedule: Q01DX001 (ip), vehicle: saline with Tween-80).
In the case of `CCOC(=O)C(C/C=C/c1ccccc1)C(C)=O` (stereo not given), the T/C by setting is: (dose: 100.0 mg/kg/injection, schedule: Q04DX002 (ip), vehicle: saline with Tween-80) 90 % of control; (dose: 200.0 mg/kg/injection, schedule: Q04DX002 (ip), vehicle: saline with Tween-80) 97 % of control; (dose: 400.0 mg/kg/injection, schedule: Q04DX002 (ip), vehicle: saline with Tween-80) 90 % of control.
Take `O=C(Nc1ccc(Cl)c(Cl)c1)OCn1ncc2ccc([N+](=O)[O-])cc21`: the T/C by setting is: under setting [8], 96 % of control; under setting [9], 100 % of control.
On to `COC1=NS(=O)(=O)N=C(N(C)C)O1`, for which the T/C (dose: 100.0 mg/kg/injection, schedule: Q01DX001 (ip), vehicle: Klucel (hydroxypropylcellulose) (HPC)) was 105 % of control; the T/C under setting [10] is 96 % of control; the T/C (dose: 200.0 mg/kg/injection, schedule: Q01DX001 (ip), vehicle: Klucel (hydroxypropylcellulose) (HPC)) is 105 % of control; the T/C under setting [1] is 96 % of control; the T/C (dose: 400.0 mg/kg/injection, schedule: Q01DX001 (ip), vehicle: Klucel (hydroxypropylcellulose) (HPC)) is 103 % of control; the T/C under setting [2] is 97 % of control.
As to `CN1CCSC1=S`, the T/C runs as follows: (dose: 50.0 mg/kg/injection, schedule: Q01DX009 (ip), vehicle: Klucel (hydroxypropylcellulose) (HPC)) 92 % of control; under setting [6], 100 % of control; under setting [10], 105 % of control; under setting [7], 105 % of control; under setting [1], 105 % of control; under setting [2], 94 % of control.
In the case of `CC[C@H](CC[C@@H](C)C1CC[C@H]2[C@@H]3CCC4=CC(=O)CC[C@]4(C)[C@H]3CC[C@]12C)C(C)C` (stereo not given in full), the T/C reads like this: under setting [11], 98 % of control; under setting [8], 95 % of control; under setting [9], 97 % of control.
As to `C=C(C)COc1ccccc1`, the T/C by setting is: (dose: 100.0 mg/kg/injection, schedule: Q01DX005 (ip), vehicle: Klucel (hydroxypropylcellulose) (HPC)) 101 % of control; under setting [6], 100 % of control; under setting [3], 100 % of control; (dose: 200.0 mg/kg/injection, schedule: Q01DX005 (ip), vehicle: Klucel (hydroxypropylcellulose) (HPC)) 108 % of control; under setting [7], 102 % of control; under setting [4], 100 % of control. The T/C (dose: 400.0 mg/kg/injection, schedule: Q01DX005 (ip), vehicle: Klucel (hydroxypropylcellulose) (HPC)) was 97 % of control and the T/C under setting [5] was 107 % of control.
`Cc1ccc(S(=O)(=O)N2CCC(Br)C(=O)c3ccccc32)cc1` (stereo not given): the T/C was 94 % of control under setting [11]; 107 % of control (dose: 100.0 mg/kg/injection, schedule: Q01DX009 (ip), vehicle: saline); 107 % of control under setting [8]; 109 % of control (dose: 200.0 mg/kg/injection, schedule: Q01DX009 (ip), vehicle: saline); 100 % of control under setting [9]; 97 % of control (dose: 400.0 mg/kg/injection, schedule: Q01DX009 (ip), vehicle: saline).
